Reference: PMC12396409, “Screening and hit evaluation of a microbial metabolite library against the pathogenic Plasmodium falciparum and Toxoplasma gondii parasites” (International Journal for Parasitology: Drugs and Drug …, 2025)
Read-outs that look alike come from different tables or passages of the source.

Experiments:
[1] = test system: P. falciparum 3D7 parasites; experiment: P. falciparum growth inhibition assay, 1-cycle (72 h treatment), SYBR DNA staining (library screen at 2 μg/mL and dose-response); format: cell-based, Plasmodium falciparum; conditions: for activity at 2 µg/mL: Plasmodium falciparum
[2] = test system: P. falciparum 3D7 parasites; experiment: P. falciparum growth inhibition assay, 2-cycle (120 h treatment), delayed-death screen and dose-response; format: cell-based, Plasmodium falciparum; conditions: for activity at 2 µg/mL: Plasmodium falciparum
[3] = test system: T. gondii RH strain (RH-Tub-eYFP) tachyzoites; experiment: microbe, parasite or virus in culture; format: cell-based, Toxoplasma gondii; conditions: 72 h; for percent parasite growth at 2 µg/mL: Toxoplasma gondii
[4] = P. falciparum 3D7, 72 h, parasite screen at 2 μg/mL, % growth, replicate 1
[5] = P. falciparum 3D7, 72 h, parasite screen at 2 μg/mL, % growth, replicate 2
[6] = P. falciparum 3D7, 120 h, parasite screen at 2 μg/mL, % growth, replicate 1
[7] = P. falciparum 3D7, 120 h, parasite screen at 2 μg/mL, % growth, replicate 2
[8] = T. gondii, parasite screen at 2 μg/mL, % growth, replicate 1
[9] = T. gondii, parasite screen at 2 μg/mL, % growth, replicate 2
[10] = P. falciparum, 72 h, screen at 2 μg/mL, replicate 1
[11] = P. falciparum, 72 h, screen at 2 μg/mL, replicate 2
[12] = P. falciparum, 120 h, screen at 2 μg/mL, replicate 1
[13] = P. falciparum, 120 h, screen at 2 μg/mL, replicate 2
[14] = T. gondii, screen at 2 μg/mL, replicate 1
[15] = T. gondii, screen at 2 μg/mL, replicate 2
[16] = P. falciparum, 72 h, parasite screen 2 μg/mL, % growth, replicate 1
[17] = P. falciparum, 72 h, parasite screen 2 μg/mL, % growth, replicate 2
[18] = P. falciparum, 120 h, parasite screen 2 μg/mL, % growth, replicate 1
[19] = P. falciparum, 120 h, parasite screen 2 μg/mL, % growth, replicate 2
[20] = T. gondii, parasite screen 2 μg/mL, % growth, replicate 1
[21] = T. gondii, parasite screen 2 μg/mL, % growth, replicate 2
[22] = library screen at 2 μg/mL, 72 h, % growth, replicate 1
[23] = library screen at 2 μg/mL, 72 h, % growth, replicate 2
[24] = library screen at 2 μg/mL, 120 h, % growth, replicate 1
[25] = library screen at 2 μg/mL, 120 h, % growth, replicate 2
[26] = library screen at 2 μg/mL, % growth, replicate 1
[27] = library screen at 2 μg/mL, % growth, replicate 2
[28] = 3D7, 72 h, P. falciparum, 72 h, screen at 2 μg/mL, replicate 1, read-out: Pf_72h_%Growth_Rep1
[29] = 3D7, 72 h, P. falciparum, 72 h, screen at 2 μg/mL, replicate 2, read-out: Pf_72h_%Growth_Rep2
[30] = 3D7, 120 h, P. falciparum, 120 h, screen at 2 μg/mL, replicate 1, read-out: Pf_120h_%Growth_Rep1
[31] = 3D7, 120 h, P. falciparum, 120 h, screen at 2 μg/mL, replicate 2, read-out: Pf_120h_%Growth_Rep2
[32] = T. gondii, screen at 2 μg/mL, replicate 1, read-out: Tg_72h_%Growth_Rep1
[33] = T. gondii, screen at 2 μg/mL, replicate 2, read-out: Tg_72h_%Growth_Rep2

CCCCCCCCCCCCCCCCCC(=O)N[C@H]1CCOC1=O [BIA-O1501]
Pf_72h_%Growth_Rep1 [1, 4]: 84.33% | Pf_72h_%Growth_Rep2 [1, 5]: 54.35% | Pf_120h_%Growth_Rep1 [2, 6]: 92.72% | Pf_120h_%Growth_Rep2 [2, 7]: 140.11% | Tg_72h_%Growth_Rep1 [3, 8]: 147.08% | Tg_72h_%Growth_Rep2 [3, 9]: 83.28%

CC(=O)C1=C(O)C=C2Oc3c(C(N)=O)c(O)cc(O)c3[C@]2(C)C1=O [Cercosporamide]
Pf_72h_%Growth_Rep1 [1, 10]: 93.73% | Pf_72h_%Growth_Rep2 [1, 11]: 83.00% | Pf_120h_%Growth_Rep1 [2, 12]: 127.36% | Pf_120h_%Growth_Rep2 [2, 13]: 89.41% | Tg_72h_%Growth_Rep1 [3, 14]: 84.28% | Tg_72h_%Growth_Rep2 [3, 15]: 89.90%

CC1OC(=O)C2CC3CCCCC3C(C=CC3CCCC(C)N3C)C12 (stereo not drawn) [BIA-H1744]
Pf_72h_%Growth_Rep1 ([1]; P. falciparum 3D7, 72 h, library screen at 2 μg/mL, % growth, replicate 1): 66.16% | Pf_72h_%Growth_Rep2 ([1]; P. falciparum 3D7, 72 h, library screen at 2 μg/mL, % growth, replicate 2): 101.99% | Pf_120h_%Growth_Rep1 ([2]; P. falciparum 3D7, 120 h, library screen at 2 μg/mL, % growth, replicate 1): 64.50% | Pf_120h_%Growth_Rep2 ([2]; P. falciparum 3D7, 120 h, library screen at 2 μg/mL, % growth, replicate 2): 86.77% | Tg_72h_%Growth_Rep1 ([3]; T. gondii RH, library screen at 2 μg/mL, % growth, replicate 1): 122.85% | Tg_72h_%Growth_Rep2 ([3]; T. gondii RH, library screen at 2 μg/mL, % growth, replicate 2): 95.17%

C[C@@H]1Cc2ccc(C(=O)N[C@@H](Cc3ccccc3)C(=O)O)c(O)c2C(=O)O1 [BIA-O1196]
Pf_72h_%Growth_Rep1 [1, 4]: 83.68% | Pf_72h_%Growth_Rep2 [1, 5]: 90.59% | Pf_120h_%Growth_Rep1 [2, 6]: 89.68% | Pf_120h_%Growth_Rep2 [2, 7]: 126.27% | Tg_72h_%Growth_Rep1 [3, 8]: 126.36% | Tg_72h_%Growth_Rep2 [3, 9]: 89.16%

COc1cc(C[C@H]2C(=O)OC[C@@H]2Cc2ccc3c(c2)OCO3)ccc1O [Pluviatolide]
Pf_72h_%Growth_Rep1 [1, 16]: 81.43% | Pf_72h_%Growth_Rep2 [1, 17]: 88.63% | Pf_120h_%Growth_Rep1 [2, 18]: 90.86% | Pf_120h_%Growth_Rep2 [2, 19]: 133.22% | Tg_72h_%Growth_Rep1 [3, 20]: 140.42% | Tg_72h_%Growth_Rep2 [3, 21]: 93.56%

CCCCCCCCCCCC[C@@H](C(=O)O)[C@H](C)C(=O)O [Roccellic acid]
Pf_72h_%Growth_Rep1 [1, 16]: 81.49% | Pf_72h_%Growth_Rep2 [1, 17]: 118.80% | Pf_120h_%Growth_Rep1 [2, 18]: 69.96% | Pf_120h_%Growth_Rep2 [2, 19]: 129.33% | Tg_72h_%Growth_Rep1 [3, 20]: 114.12% | Tg_72h_%Growth_Rep2 [3, 21]: 89.45%

COc1cc2c3c(c1O)-c1c(cc(O)c(OC)c1OC)CCC3N(C)CC2 (stereo not drawn) [Floramultine]
Pf_72h_%Growth_Rep1 [1, 22]: 85.55% | Pf_72h_%Growth_Rep2 [1, 23]: 120.01% | Pf_120h_%Growth_Rep1 [2, 24]: 85.60% | Pf_120h_%Growth_Rep2 [2, 25]: 101.00% | Tg_72h_%Growth_Rep1 [3, 26]: 115.84% | Tg_72h_%Growth_Rep2 [3, 27]: 93.93%

COc1cc([C@H]2[C@@]3(O)C[C@H]4C[C@]2(O)[C@](O)(C(=O)O4)[C@H]3C(=O)c2ccccc2)oc(=O)c1 [Deoxyenterocin]
Pf_72h_%Growth_Rep1 [1, 10]: 87.29% | Pf_72h_%Growth_Rep2 [1, 11]: 90.62% | Pf_120h_%Growth_Rep1 [2, 12]: 64.95% | Pf_120h_%Growth_Rep2 [2, 13]: 102.75% | Tg_72h_%Growth_Rep1 [3, 14]: 127.64% | Tg_72h_%Growth_Rep2 [3, 15]: 104.18%

COc1ccc(Br)c(C)c1C(=O)O[C@@H]1C[C@H](O[C@@H]2C(C)O[C@@H](O[C@H]3CCC[C@@H]4[C@@H]3C=C[C@H]3CCCC/C=C/[C@@H]5C=C(C(=O)O)[C@H](C)C[C@]56OC(=O)C(=C6O)OC(=O)[C@@]43C)C[C@H]2O)O[C@H](C)[C@H]1O (stereo partly drawn) [Bromothricin]
Pf_72h_%Growth_Rep1 [1, 10]: 90.13% | Pf_72h_%Growth_Rep2 [1, 11]: 84.25% | Pf_120h_%Growth_Rep1 [2, 12]: 159.83% | Pf_120h_%Growth_Rep2 [2, 13]: 97.51% | Tg_72h_%Growth_Rep1 [3, 14]: 83.92% | Tg_72h_%Growth_Rep2 [3, 15]: 93.14%

CC=CC(C)=CC(C)C(=O)CC(O)CC1CC(=O)NC(=O)C1 (stereo not drawn) [BIA-M1404]
Pf_72h_%Growth_Rep1 [1, 4]: 71.61% | Pf_72h_%Growth_Rep2 [1, 5]: 88.22% | Pf_120h_%Growth_Rep1 [2, 6]: 85.21% | Pf_120h_%Growth_Rep2 [2, 7]: 78.18% | Tg_72h_%Growth_Rep1 [3, 8]: 4.29% | Tg_72h_%Growth_Rep2 [3, 9]: 7.26%

CC[C@H]1OC(=O)[C@H](C)[C@@H](O[C@H]2C[C@@](C)(OC)[C@@H](O)[C@H](C)O2)[C@H](C)[C@@H](O[C@@H]2O[C@H](C)C[C@H](N(C)C)[C@H]2O)[C@@]2(C)CC(C)=C(O2)[C@H](C)[C@@H](O)[C@]1(C)O [Erythromycin A enol ether]
Pf_72h_%Growth_Rep1 [1, 22]: 65.76% | Pf_72h_%Growth_Rep2 [1, 23]: 86.36% | Pf_120h_%Growth_Rep1 [2, 24]: 47.90% | Pf_120h_%Growth_Rep2 [2, 25]: 73.68% | Tg_72h_%Growth_Rep1 [3, 26]: 90.78% | Tg_72h_%Growth_Rep2 [3, 27]: 86.46%

C[C@H]1C/C=C/[C@H]2[C@@H]3O[C@]3(C)[C@@H](C)[C@H]3[C@H](Cc4ccccc4)NC(=O)[C@]32OC(=O)O/C=C/[C@@](C)(O)C1=O [Cytochalasin E]
activity at 2 µg/mL [1, 28]: 64% | activity at 2 µg/mL [1, 29]: 54.5% | activity at 2 µg/mL [2, 30]: 53.6% | activity at 2 µg/mL [2, 31]: 53.8% | percent parasite growth at 2 µg/mL [3, 32]: 89.3% | percent parasite growth at 2 µg/mL [3, 33]: 102%

CC1(C)CC[C@]2(C(=O)O)CC[C@]3(C)C(=CC[C@@H]4[C@@]5(C)C[C@@H](O)[C@H](O)[C@@](C)(CO)[C@@H]5CC[C@]43C)[C@@H]2C1 [Arjunolic acid]
activity at 2 µg/mL ([1]; 3D7, library screen at 2 μg/mL, 72 h, % growth, replicate 1, read-out: Pf_72h_%Growth_Rep1): 75.9% | activity at 2 µg/mL ([1]; 3D7, library screen at 2 μg/mL, 72 h, % growth, replicate 2, read-out: Pf_72h_%Growth_Rep2): 83% | activity at 2 µg/mL ([2]; 3D7, library screen at 2 μg/mL, 120 h, % growth, replicate 1, read-out: Pf_120h_%Growth_Rep1): 72.4% | activity at 2 µg/mL ([2]; 3D7, library screen at 2 μg/mL, 120 h, % growth, replicate 2, read-out: Pf_120h_%Growth_Rep2): 76.3% | percent parasite growth at 2 µg/mL ([3]; library screen at 2 μg/mL, % growth, replicate 1, read-out: Tg_72h_%Growth_Rep1): 85.6% | percent parasite growth at 2 µg/mL ([3]; library screen at 2 μg/mL, % growth, replicate 2, read-out: Tg_72h_%Growth_Rep2): 73.6%

CC=C1CN(C)C2Cc3c([nH]c4ccccc34)C(c3cc4[nH]c5c(c4cc3OC)CCN3CC4CC(CC)C3C5(C(=O)OC)C4)CC1C2C(=O)OC (stereo not drawn) [Voacamine]
activity at 2 µg/mL [1, 28]: 56.2% | activity at 2 µg/mL [1, 29]: 62% | activity at 2 µg/mL [2, 30]: 106% | activity at 2 µg/mL [2, 31]: 45.2% | percent parasite growth at 2 µg/mL [3, 32]: 97% | percent parasite growth at 2 µg/mL [3, 33]: 101%

COc1c(CC(C)O)c2c3c(CC(C)O)c(OC)c(=O)c4c(O)cc5c(c6c(cc(O)c(c1=O)c62)OCO5)c43 (stereo not drawn) [Cercosporin]
activity at 2 µg/mL ([1]; 3D7, P. falciparum, 72 h, screen at 2 μg/mL, replicate 1, read-out: Pf_72h_%Growth_Rep1): 9.71% | activity at 2 µg/mL ([1]; 3D7, P. falciparum, 72 h, screen at 2 μg/mL, replicate 2, read-out: Pf_72h_%Growth_Rep2): 9.49% | activity at 2 µg/mL ([2]; 3D7, P. falciparum, 120 h, screen at 2 μg/mL, replicate 1, read-out: Pf_120h_%Growth_Rep1): 7.99% | activity at 2 µg/mL ([2]; 3D7, P. falciparum, 120 h, screen at 2 μg/mL, replicate 2, read-out: Pf_120h_%Growth_Rep2): 4.28% | percent parasite growth at 2 µg/mL [3, 32]: 4.15% | percent parasite growth at 2 µg/mL [3, 33]: 11.5%
